Read-outs that look alike come from different tables or passages of the source.
What was measured:
[1] = type: in vitro ADME; conditions: pig
Description: Quantitative determination of N-Acetyl-L-cysteine in the receptor solution samples from the skin permeation studies in Example 2 and from the membrane permeation studies in Example 3, and quantitative determination of N-Acetyl-L-cysteine in the samples from the stability studies in Example 6, was done by the HPLC method described under Apparatus.
In vitro permeation of N-Acetyl-L-cysteine from the solutions 1, 2, 3 and 4 through dermatomed pig skin was investigated in Franz diffusion Cells.
Skin pieces with a thickness of approximately 765 μm were dermatomed from full thickness pig skin and mounted in glass diffusion cells with an available diffusion area of 1.8 cm^2. Pig skin is a fully accepted model for human skin. The solutions 1, 2, 3 and 4 were applied separately on the skin surfaces and the dermal sides were all exposed to 12.1 ml receptor solution consisting of 0.0001M hydrochloric acid equilibrated to 37±1° C.
Permeation of N-Acetyl-L-cysteine was followed by removing samples periodically and measuring the concentration by the HPLC method according to Example 1. An increase in the permeated amount of N-Acetyl-L-cysteine is seen in the following order: Propylene glycol, water, ethanol and propylene glycol containing 5% azone added used as solvents. […]

[2] = oral administration, cited from earlier work

estimated fluxes of N-Acetyl-L-cysteine through skin [1]: 4-48 μg/cm^2/h
amount permeated through skin after 20 hours ([1]; 20 h): about 3000 μg/cm^2
Compound: CC(=O)N[C@@H](CS)C(=O)O [N-Acetyl-L-cysteine]
bioavailability when administered perorally [2]: 4%
bioavailability when administered perorally ([2]; listed as N-Acetyl-cysteine): 4-10%
